We go through 4 compounds from patent publication US6649605B2, “Treatment of tension-type headaches with NMDA receptor antagonists” (Head Explorer A/S, priority 1996, dated 2003).

“Also recorded” adds a separate entry of the source.

In one series the test system is human volunteers. As to conditions: cited from earlier work.
The test system of series [1] is patients with chronic tension-type headache. As to the kind of experiment: Open labeled pilot study of prophylactic Dextromethorphan. In kind it is in vivo, human. The source says:
Five patients with a diagnosis of chronic tension-type headache according to the International Headache Society (Headache Classification Committee 1988) were recruited from the outpatient headache clinic at Glostrup Hospital. There were 2 males and 3 females, and the mean age was 45.4 years (range 39-48). The mean life time duration of chronic tension-type headache was 12.2 years (range 4-25). One patient had coexisting but infrequent migraine. Exclusion criteria were; daily major medication (including prophylactic headache therapy); abuse of analgesics or alcohol; serious somatic or psychiatric diseases including depression.
Using an open labeled design, patients fulfilled a diagnostic headache diary during at least 4 weeks run-in period to ensure the diagnostic criteria. Thereafter, the patients received Dextromethorphan (Dexofan®) tablets at 30 mg each, three times per day. The treatment period lasted 4 weeks, and during this period patients were asked to continue Faith headache diaries: and record headache intensity, frequency, duration, any medication taken and any possible adverse events. At a follow up visit at day 29-32, diaries were collected and possible adverse events and evaluation of the treatment were recorded. Due to the restricted number of patients, no statistical analysis were done. The efficacy parameters were headache intensity, frequency and duration, and intake of simple analgesics. Mean values from the run-in period were compared to those obtained during the treatment period.

Another series concerns tension-type headache. The conditions noted are these: literature reports; cited from earlier work.
Series [2] deals with alpha-2-subunit of a calcium channel. The conditions noted are these: cited from earlier work.
In a further series the target is GABA B (Homo sapiens, UniProt Q9UBS5). The conditions noted are these: cited from earlier work.
GABA B, sequence (Q9UBS5 15-961 limits assumed): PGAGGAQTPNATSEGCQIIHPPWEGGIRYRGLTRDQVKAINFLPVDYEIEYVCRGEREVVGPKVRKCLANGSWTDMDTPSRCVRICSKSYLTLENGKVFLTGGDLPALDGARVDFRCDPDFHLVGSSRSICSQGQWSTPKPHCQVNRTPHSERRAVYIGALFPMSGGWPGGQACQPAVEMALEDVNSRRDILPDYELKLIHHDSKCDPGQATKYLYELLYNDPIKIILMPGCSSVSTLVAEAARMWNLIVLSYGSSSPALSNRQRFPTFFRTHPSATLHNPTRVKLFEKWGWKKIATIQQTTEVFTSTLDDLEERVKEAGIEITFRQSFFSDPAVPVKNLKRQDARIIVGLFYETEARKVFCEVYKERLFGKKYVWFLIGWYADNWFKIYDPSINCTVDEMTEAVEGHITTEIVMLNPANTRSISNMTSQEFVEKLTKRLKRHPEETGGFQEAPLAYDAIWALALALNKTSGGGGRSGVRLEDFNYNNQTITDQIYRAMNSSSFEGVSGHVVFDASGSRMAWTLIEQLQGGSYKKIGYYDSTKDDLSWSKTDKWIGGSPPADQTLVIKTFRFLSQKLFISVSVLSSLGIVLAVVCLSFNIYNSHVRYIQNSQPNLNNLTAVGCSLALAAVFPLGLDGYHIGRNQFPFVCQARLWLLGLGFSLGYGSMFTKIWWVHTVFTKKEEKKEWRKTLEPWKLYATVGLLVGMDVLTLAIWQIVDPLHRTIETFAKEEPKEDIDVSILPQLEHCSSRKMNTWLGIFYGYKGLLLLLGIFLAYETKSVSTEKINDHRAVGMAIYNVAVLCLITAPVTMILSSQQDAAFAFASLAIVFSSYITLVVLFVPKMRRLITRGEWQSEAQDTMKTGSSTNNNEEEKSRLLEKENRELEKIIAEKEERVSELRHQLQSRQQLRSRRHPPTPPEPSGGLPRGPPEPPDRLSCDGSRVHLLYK
GABA B, sequence (O75899 42-941 partner): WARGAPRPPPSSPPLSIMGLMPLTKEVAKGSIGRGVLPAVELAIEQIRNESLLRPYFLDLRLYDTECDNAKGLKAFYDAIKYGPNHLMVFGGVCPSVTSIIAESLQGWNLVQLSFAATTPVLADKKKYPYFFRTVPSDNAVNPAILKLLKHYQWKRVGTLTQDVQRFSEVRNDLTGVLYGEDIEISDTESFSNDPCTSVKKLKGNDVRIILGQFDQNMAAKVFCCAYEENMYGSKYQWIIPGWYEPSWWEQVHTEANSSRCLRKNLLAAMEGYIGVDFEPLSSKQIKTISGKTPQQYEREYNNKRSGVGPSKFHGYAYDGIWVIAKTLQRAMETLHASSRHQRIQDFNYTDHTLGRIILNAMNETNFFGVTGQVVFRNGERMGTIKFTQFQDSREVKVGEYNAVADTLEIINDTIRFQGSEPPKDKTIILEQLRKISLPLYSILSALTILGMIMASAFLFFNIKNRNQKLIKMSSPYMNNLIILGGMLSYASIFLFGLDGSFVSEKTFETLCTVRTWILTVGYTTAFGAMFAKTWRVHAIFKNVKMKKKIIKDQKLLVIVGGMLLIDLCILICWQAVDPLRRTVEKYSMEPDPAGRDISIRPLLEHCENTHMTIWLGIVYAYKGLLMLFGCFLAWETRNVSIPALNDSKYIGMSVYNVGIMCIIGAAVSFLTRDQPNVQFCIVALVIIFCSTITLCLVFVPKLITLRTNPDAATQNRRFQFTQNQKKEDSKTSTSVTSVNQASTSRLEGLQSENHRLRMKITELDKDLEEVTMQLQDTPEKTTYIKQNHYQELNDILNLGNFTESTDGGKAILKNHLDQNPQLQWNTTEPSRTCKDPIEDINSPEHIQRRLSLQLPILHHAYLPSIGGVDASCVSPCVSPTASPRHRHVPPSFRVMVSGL
A further series relates to GABA A. The conditions noted are these: cited from earlier work.
For series [3], the system named is patients with chronic tension-type headache. As to the kind of experiment: Open labeled pilot study of prophylactic Gabapentin. The series is classed as in vivo, human. An excerpt:
Three patients with a diagnosis of chronic tension-type headache according to the International Headache society (Headache Classification Committee 1988) were recruited from the outpatient headache clinic at Glostrup Hospital. The patients were males with a mean age of 42 years (range. 35-49). The mean life time duration of chronic tension-type headache was 16 years (range 7-21). […] Exclusion criteria were: daily major medication (including prophylactic headache therapy); abuse of analgesics or alcohol; serious somatic or psychiatric diseases including depression.
Using an open labeled design, patients fulfilled a diagnostic headache diary during at least 4 weeks run-in period to ensure the diagnostic criteria. Thereafter, the patients received Gabapentin (Neurontin®) tablets, initially 300 mg (one tablet) per day on day one, increasing with 300 mg (1 tablet) per day to 900 mg (3 tablets) on day 3. The treatment period lasted […], and during this period patients were asked to continue with headache diaries, and record headache intensity, frequency, duration, any medication taken and any possible adverse events. At a follow, up visit at day 29-32, diaries were collected and any adverse events and evaluation of the treatment were recorded. Duo to the low number of patients, no statistical analysis were done. The primary efficacy parameters were headache intensity frequency and duration, and the mean values from the run-in period were compared to those obtained during the treatment period, […]

For a further series, the system named is migraine. As to conditions: literature reports; cited from earlier work.
Setting [4] is: 0-10 VAS intensity scale, during active treatment, mean.
[5] abbreviates: 0-10 VAS intensity scale, run-in period, mean.
Setting [6] is: open labeled, no statistical analysis.

Turning to `COc1ccc2c(c1)[C@]13CCCC[C@@H]1[C@H](C2)N(C)CC3` [Dextromethorphan], the “After sensation induced by repetitive stimuli” value in the series with human volunteers is “reduce the after sensation”. Also, the “Headache intensity, active treatment” value in series [1] (setting [4]) amounted to 3.6. In addition, the “Headache intensity, run-in period” value in series [1] (setting [5]) is reported as 4.4. For the same compound, in series [1] (5 patients), the “Effect in the individual patients” value is “Two patients reported a marked effect with considerable relief of headache intensity and duration within very few days of treatment; also recorded: one patient had a slight relief of headache intensity; also recorded: two patients reported no effect at all”; the Side effects result was “Four patients reported no side effects; also recorded: marked side effects with sedation was reported in one patient”. Moreover, in series [1] (active treatment), the “Frequency of headache, active treatment” value came to 27 days per 4 weeks period and the “Mean intake of analgesics, active treatment” value was 0.5 dose per day. The Overall prophylactic effect entry in series [1] (setting [6]) was “positive prophylactic effect”. The “Frequency of headache, run-in period” value in series [1] (run-in) is 28 days per 4 weeks period. The “Mean intake of analgesics, run-in period” value in series [1] (run-in period) turned out to be 1.8 dose per day. In series [1] (treatment vs run-in period), the “Decrease of frequency of headache” value stood at 4%, the “Decrease of intake of analgesics” value worked out at 72% and the “Reduction of duration of the individual headache episode” value was 11%. Besides, the “Reduction of headache intensity” value in series [1] (treatment vs run-in period, 30 mg three times per day, 4 weeks, 5 patients) turned out to be 18%.
As to `CCOC(=O)Nc1ccc(NCc2ccc(F)cc2)nc1N` [Flupirtin, ethyl 2-amino-6-(4-fluorobenylamino)-3-pyridylcarbamate], the “Effect in tension-type headache” value with tension-type headache is listed as “positive effects”.
Take `NCC1(CC(=O)O)CCCCC1` [Gabapentin]: the “Binding affinity to the alpha-2-subunit of a calcium channel” value in series [2] is listed as “showed binding affinity”. Also, the “Affinity for GABA B” value on GABA B is “fail to show affinity”. Further, the “Affinity for GABA A” value with GABA A is given as “fail to show affinity”. Also, in series [3] (setting [4]), the “Headache intensity, active treatment” value is on record as 3.6. For the same compound, the “Headache intensity, run-in period” value in series [3] (setting [5]) worked out at 5.5. In series [3] (3 patients), the “Effect in the individual patients” value was “One patient had excellent effect of Gabapentin with complete relief of the headache after 2 days treatment; also recorded: another patient had a moderate effect on headache intensity and frequency; also recorded: the third patient had no significant effect on any of efficacy parameters”; the Side effects result is “Those two subjects with good or excellent effect reported no side effects; also recorded: sedation, vertigo and slight nausea”. Moreover, the “Mean daily intake of analgesics, active treatment” value in series [3] (active treatment) is listed as 0.3 dose per day. Besides, in series [3] (active treatment period), the “Frequency of headache, active treatment” value turned out to be 13 days per 4 weeks. Moreover, the Overall prophylactic effect entry in series [3] (setting [6]) is reported as “positive prophylactic effect”. For the same compound, in series [3] (run-in period), the “Frequency of headache, run-in period” value was found to be 23.5 days per 4 weeks and the “Mean daily intake of analgesics, run-in period” value amounted to 1.1 dose per day. Further, in series [3] (treatment vs run-in period), the “Decrease of frequency of headache” value was determined as 45%, the “Decrease of mean daily intake of analgesics” value is reported as 72% and the “Reduction of duration of the individual headache episode” value is reported as 8%. Further, in series [3] (treatment vs run-in period, up to 900 mg per day, 3 patients), the “Decrease of headache intensity” value came to 35%.
Turning to `CNS(=O)(=O)Cc1ccc2[nH]cc(CCN(C)C)c2c1` [sumatriptan], in the series with migraine, the Effect in migraine result is on record as “highly effective”. Further, the “Effect in tension-type headache” value in the series on tension-type headache is listed as “not effective to a clinically relevant extent”.
